Assay results taken from patent US5972975A, “Substituted 2-aminopyridines as inhibitors of nitric oxide synthase” (priority 1997, dated 1999).
Where a name gives a salt, the structure may show the parent alone. Read-outs that look alike come from different tables or passages of the source.

Legend:
[1] = target: ncNOS (Homo sapiens, UniProt P29475); assay: biochemical
[2] = target: ecNOS (Homo sapiens, UniProt P29474); assay: NOS activity: L-[3H]citrulline formation from L-[3H]arginine, ecNOS; type: biochemical
Experimental: (§1) NOS activity is measured as the formation of L-[2,3,4,5-^3 H]Citrullinefrom L-[2,3,4,5-^3 H]Arginine. The incubation buffer (100 μL) contained; 100 mM TES, pH 7.5, 5 μM FAD, 5 μM FMN, 10 μM BH4, 0.5 mM NADPH, 0.5 mM DTT, 0.5 mg/mL BSA, 2 mM CaCl2, 10 μg/mL calmodulin (bovine), 1 μM L-Arg, 0.2 μCi L-[2,3,4,5-^3 H]Arg, and the inhibitor in aqueous DMSO (max. 5%). The reaction is initiated by addition of enzyme. Incubations are performed at room temperature for 30 minutes and stopped by the addition of an equal volume of quenching buffer consisting of 200 mM sodium citrate, pH 2.2, 0.02% sodium azide. Reaction products are separated by passing through a cation exchange resin and quantitated as cpm by scintillation counting.

[3] = target: iNOS (Homo sapiens, UniProt P35228); assay: NOS activity: L-[3H]citrulline formation from L-[3H]arginine, iNOS; type: biochemical
Experimental: as §1

[4] = Table 2, ncNOS, 1 μM L-Arg, pH 7.5, room temperature, 30 minutes, read-out: ncNOS (IC50)
[5] = Table 2, ecNOS, 1 μM L-Arg, pH 7.5, room temperature, 30 minutes, read-out: ecNOS (IC50)
[6] = Table 2, iNOS, 1 μM L-Arg, pH 7.5, room temperature, 30 minutes, read-out: iNOS (IC50)
[7] = Table 1, ncNOS, 1 μM L-Arg, pH 7.5, room temperature, 30 minutes, read-out: ncNOS (IC50)
[8] = Table 1, ecNOS, 1 μM L-Arg, pH 7.5, room temperature, 30 minutes, read-out: ecNOS (IC50)
[9] = Table 1, iNOS, 1 μM L-Arg, pH 7.5, room temperature, 30 minutes, read-out: iNOS (IC50)

Chain of ncNOS (P29475 whole entry): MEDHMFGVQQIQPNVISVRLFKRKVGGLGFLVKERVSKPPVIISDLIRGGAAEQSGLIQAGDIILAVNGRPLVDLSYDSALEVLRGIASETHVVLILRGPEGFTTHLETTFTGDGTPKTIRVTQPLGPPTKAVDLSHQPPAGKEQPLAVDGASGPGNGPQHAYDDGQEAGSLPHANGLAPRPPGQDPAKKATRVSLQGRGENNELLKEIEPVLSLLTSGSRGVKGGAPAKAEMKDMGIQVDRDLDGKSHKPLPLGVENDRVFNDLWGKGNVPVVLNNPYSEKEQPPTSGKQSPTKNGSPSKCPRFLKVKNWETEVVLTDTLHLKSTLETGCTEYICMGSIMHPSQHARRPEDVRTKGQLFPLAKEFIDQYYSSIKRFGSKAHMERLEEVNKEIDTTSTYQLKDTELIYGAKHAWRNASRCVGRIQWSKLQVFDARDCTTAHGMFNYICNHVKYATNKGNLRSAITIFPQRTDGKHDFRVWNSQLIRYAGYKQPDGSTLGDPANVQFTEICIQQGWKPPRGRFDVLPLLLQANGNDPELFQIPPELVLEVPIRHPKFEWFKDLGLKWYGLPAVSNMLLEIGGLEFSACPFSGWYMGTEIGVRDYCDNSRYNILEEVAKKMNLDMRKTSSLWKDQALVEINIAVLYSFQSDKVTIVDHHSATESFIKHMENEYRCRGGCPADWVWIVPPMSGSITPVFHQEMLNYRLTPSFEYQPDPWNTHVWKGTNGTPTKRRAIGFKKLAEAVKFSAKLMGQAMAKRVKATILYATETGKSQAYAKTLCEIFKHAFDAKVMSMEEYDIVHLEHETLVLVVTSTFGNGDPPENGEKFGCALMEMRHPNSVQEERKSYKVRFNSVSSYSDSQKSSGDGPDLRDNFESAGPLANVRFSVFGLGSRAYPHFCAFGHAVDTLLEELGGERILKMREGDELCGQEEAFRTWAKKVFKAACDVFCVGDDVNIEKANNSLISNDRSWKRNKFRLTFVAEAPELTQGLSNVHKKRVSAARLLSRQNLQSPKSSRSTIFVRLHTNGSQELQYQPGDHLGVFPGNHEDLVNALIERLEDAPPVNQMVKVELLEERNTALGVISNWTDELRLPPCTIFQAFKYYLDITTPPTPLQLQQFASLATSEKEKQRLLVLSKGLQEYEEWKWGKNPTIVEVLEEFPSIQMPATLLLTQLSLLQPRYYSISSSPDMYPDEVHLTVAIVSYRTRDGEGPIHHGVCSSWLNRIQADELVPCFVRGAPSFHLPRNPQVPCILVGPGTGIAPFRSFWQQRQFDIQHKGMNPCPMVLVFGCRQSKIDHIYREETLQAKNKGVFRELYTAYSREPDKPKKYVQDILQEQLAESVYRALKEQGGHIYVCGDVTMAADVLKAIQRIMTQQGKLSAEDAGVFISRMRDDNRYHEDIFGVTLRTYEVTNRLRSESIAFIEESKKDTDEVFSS

Row | Compound | IC50 [1, 4] [µM] | IC50 [2, 5] [µM] | IC50 [3, 6] [µM] | other results
1 | COC(=O)c1cc(Cl)cc(N)n1 [Example 36, 4-Chloro-6-methoxycarbonyl-2-aminopyridine] | > 50 | > 50 | < 50 | 
2 | C=Cc1c(C)cc(N)nc1C [Example 37, 4,6-Dimethyl-5-ethenyl-2-aminopyridine] | < 1 | < 10 | < 10 | 
3 | Nc1cc(Cl)ccn1 [Example 15, 2-Amino-4-chloropyridine] |  |  |  | IC50 [1, 7]: < 10 µM; IC50 [2, 8]: < 10 µM; IC50 [3, 9]: < 1 µM
4 | CSc1ccnc(N)c1 [Example 35, 4-Methylthio-2-aminopyridine] | < 10 | < 50 | < 50 | 
5 | CSc1c(C)ccnc1N [Example 21, 2-Amino-3-methylthio-4-picoline] | < 10 | < 50 | < 50 | 
6 | Cc1ccnc(N)c1Cl [Example 28, 2-Amino-3-chloro-4-picoline] | < 10 | < 10 | < 1 | 
7 | Cc1cc(N)ncc1N [Example 30, 2.5-Diamino-4-picoline] |  |  |  | IC50 [1]: < 50 µM; IC50 [2]: < 50 µM; IC50 [3]: < 10 µM
8 | Cc1cc(N)ncc1Br [Example 41, 2-Amino-5-bromo-4-methylpyridine] | < 10 | < 10 | < 10 | 
9 | Cc1cc(N)ncc1C(=O)O [Example 43, 2-Amino-5-carboxy-4-methylpyridine] | > 50 | > 50 | > 50 | 
10 | Cc1ccnc(N)c1N(C)C [Example 27, 2-Amino-3-dimethylamino-4-picoline trihydrochloride] | < 50 | > 50 | < 50 | 
11 | COc1ccnc(N)c1 [Example 34, 4-Methoxy-2-aminopyridine] | < 10 | < 10 | < 10 | 
12 | CC(=O)Nc1cnc(N)cc1C [Example 31, 5-Acetylamino-2-amino-4-picoline] | < 50 | < 50 | < 10 | 
13 | Nc1ccccn1 [Example 1] |  |  |  | IC50 [1, 7]: < 10 µM; IC50 [2, 8]: < 10 µM; IC50 [3, 9]: 1.4 µM
14 | C#Cc1cnc(N)cc1C [Example 32, 2-Amino-5-ethynyl-4-methyl-pyridine] | < 50 | < 50 | < 10 | 
15 | COc1cccnc1N [Example 20, 2-Amino-3-methoxypyridine] | < 50 | < 50 | > 50 | 
16 | Cc1ccnc(N)c1NC(=O)NCc1ccccc1 [Example 19, 2-Amino-3-benzylurea-4-picoline] | > 50 | > 50 | < 10 | 
17 | CSCc1ccnc(N)c1 [Example 22, 2-Amino-4-methylthiomethylpyridine] | > 50 | > 50 | < 50 | 
18 | Nc1ccnc(N)c1 [Example 38, 2,4-Diaminopyridine dihydrochloride] | < 50 | < 50 | < 10 | 
19 | COCc1c(C)ccnc1N [Example 25, 2-Amino-3-methoxymethyl-4-picoline dihydrochloride] | < 50 | < 50 | < 10 | 
20 | CCCCCc1cnc(N)cc1C [Example 33, 2-Amino-4-methyl-5-pentyl-pyridine] | < 10 | > 50 | < 50 | 

Continued, in another order:

Row | IC50 [1, 4] [µM] | IC50 [2, 5] [µM] | IC50 [3, 6] [µM] | Compound | other results
21 | < 1 | < 1 | < 1 | CCc1cc(C)cc(N)n1 [Example 54, 2-Amino-6-ethyl-4-methylpyridine] | 
22 | < 1 | < 1 | < 1 | Cc1cc(N)nc(CC(C)C)c1 [Example 72, 2-Amino-4-methyl-6-(2-methylpropyl)pyridine] | 
23 | < 1 | < 1 | < 1 | C=CCCc1cc(C)cc(N)n1 [Example 53, 2-Amino-6-(3-buten-1-yl)-4-methylpyridine] | 
24 | < 1 | < 1 | < 1 | Cc1cc(N)nc(CCO)c1 [Example 58, 2-Amino-6-(2-hydroxyethyl)-4-methylpyridine] | 
25 | < 1 | < 10 | < 1 | Cc1cc(N)nc(CCCN)c1 [Example 66, 2-Amino-6-(3-aminopropyl)-4-methylpyridine] | 
26 | < 10 | < 1 | < 1 | Cc1cc(N)nc(C(C)C)c1 [Example 55, 2-Amino-4-methyl-6-(1-methylethyl)pyridine] | 
27 | < 1 | < 10 | < 1 | Cc1cc(N)nc(CCCCN)c1 [Example 56, 2-Amino-6-(4-aminobutyl)-4-methylpyridine] | 
28 | < 1 | < 1 | < 1 | Cc1cc(N)nc(CCC(N)C(=O)O)c1 (stereo not drawn) [Example 59, α-(2-(6-Amino-4-methylpyrid-2-yl)ethyl)glycine dihydrochloride] | 
29 | < 1 | < 50 | < 10 | Cc1cc(N)nc(CC[C@@H](C)N)c1 [Example 77, (R)-2-Amino-6-(3-aminobutyl)-4-methylpyridine] | 
30 | < 50 | < 10 | < 50 | Nc1ncccc1OCC[C@H](N)C(=O)O [Example 48, 2-(2-Amino-3-pyridinoxy)-ethyl-(S)-glycine dihydrochloride] | 
31 | > 50 | > 50 | < 10 | CC(=O)NCc1cnc(N)cc1C [Example 46, 2-Amino-5-acetamidomethyl-4-methylpyridine] | 
32 | < 1 | < 1 | < 1 | Cc1cnc(N)cc1C [Example 49, 2-Amino-4,5-dimethylpyridine hydrochloride] | 
33 | < 10 | < 50 | < 10 | Cc1cc(N)nc2c1CCCC2 [Example 63, 2-Amino-4-methyl-5,6,7,8-tetrahydroquinoline] | 
34 | < 1 | < 10 | < 1 | Cc1cc(N)nc(CCC(C)C)c1 [Example 71, 2-Amino-4-methyl-6-(3-methylbutyl)pyridine] | 
35 | < 10 | < 10 | < 10 | Cc1cc(N)nc(CCc2ccccc2)c1 [Example 73, 2-Amino-4-methyl-6-(2-phenylethyl)pyridine] | 
36 | < 50 | > 50 | < 50 | Nc1cccc(Cc2ccccc2)n1 [Example 61, 2-Amino-6-benzylpyridine] | 
37 | < 10 | < 10 | < 10 | Cc1cc(N)nc(CCCCc2ccccc2)c1 [Example 70, 2-Amino-4-methyl-6-(4-phenylbutyl)pyridine] | 
38 | < 50 | < 50 | < 50 | Nc1nccc2c1CCCC2 [Example 65, 1-Amino-5,6,7,8-tetrahydroisoquinoline] | 
39 | < 50 | < 10 | < 10 | Cc1cc(N)ncc1CN [Example 45, 2-Amino-5-aminomethyl-4-methylpyridine dihydrochloride] | 
40 | < 10 | < 1 | < 10 | Cc1cc(N)nc(CCCCC(=O)O)c1 [Example 74, 5-(6-Amino-4-methyl-2-pyridinyl)pentanoic acid hydrochloride] | 
41 | < 1 | < 10 | < 1 | Cc1cc(N)nc(CC[C@H](C)N)c1 [Example 76, (S)-2-Amino-6-(3-aminobutyl)-4-methylpyridine] | 
